The test system of assay [1] is P2X7R, TLR4, MyD88, NLRP3, caspase1, IL-1β, IL-18, phospho-STAT3, and NF-κB (p65, p50) proteins. The assay is described as follows: western blot of neurological inflammation proteins in hippocampus. It counts as in vivo, Wistar rats. Here is the method:
(§1) Specifically, 12-week-old Wister rats (350 g to 380 g) were used for the experiments. After obtaining the experimental animals, appearance was visually inspected and then normal symptoms were observed during a 7-day acclimation period. Healthy animals were selected therefrom and assigned to groups by a random method according to body weight ranges, and then experiments were performed. During the acclimation and experiment, a constant breeding environment was maintained under the conditions of a temperature of 23±3° C., a relative humidity of 50±10%, a ventilation frequency of 12 times to 16 times per hour, a 12-hour light-dark cycle (light on at 7:00, light off at 19:00), and an intensity of illumination of 150 Lx to 300 Lx. Experiments were performed using sterilized instruments, and the rats were allowed free access to tap water and a solid feed (PMI nutrition, USA) for 24 hours.
In order to construct a vascular dementia-mimic animal model, chronic cerebral hypoperfusion was induced by bilateral common carotid artery occlusion (2VO, hereinafter referred to as “brain damage (BCCA0)”) (Wakita et al., 1994). The rats were anesthetized with 4% isoflurane, and the anesthesia was maintained by 1.5% isoflurane during the operation. The central neck was incised to expose the bilateral common carotid artery carefully so as not to cause damage to the vagal nerve. Ligation was performed twice with No. 3 silk, thereby constructing an animal model in which dementia was induced by brain damage.
After 21 days from the BCCA0 operation, the Wistar rats were orally administered with mumefural for 42 days. The rats were divided into 5 groups listed in Table 1 below, and controls were orally administered with saline. Different concentrations of mumefural were set in the oral administration as low concentration (20 mg/kg), medium concentration (40 mg/kg), and high concentration (80 mg/kg).
In order to investigate effects of mumefural on reduction of neurological inflammation in the dementia-mimic animal model, mumefural was administered in the same manner as in Example 1, and then expression levels of P2X purinoceptor 7 (P2X7R), toll-like receptor 4 (TLR4), myeloid differentiation primary response 88 (MyD88), nucleotide-binding oligomerization domain-like receptor protein 3 (NLRP3), caspase1, interleukin (IL)-1β, IL-18, phospho-signal transducer and activator of transcription 3 (phospho-STAT3), and NF-κB (p65, p50) proteins were measured in the hippocampus. Meanwhile, these proteins provoke inflammation of nerve cells, causing damage to the brain and resulting in diseases such as dementia.
Specifically, the hippocampus was excised from each of the dementia-mimic rats after administration of mumefural was completed, and proteins were extracted therefrom. Expression levels of the proteins were analyzed by western blotting. β-Actin and LaminB1 were used as loading controls.
On the technique in general: In western blotting, separated proteins are transferred to a membrane and probed.

Another assay concerns AChE. The assay is described as follows: enzyme-linked immunosorbent assay of AChE activity in basal forebrain. It counts as in vivo. Particulars: compared with the negative control; FIG. 6. How it is done:
as §1
(§2) In order to construct a vascular dementia-mimic animal model, chronic cerebral hypoperfusion was induced by bilateral common carotid artery occlusion (2VO, hereinafter referred to as “brain damage (BCCA0)”) (Wakita et al., 1994). The rats were anesthetized with 4% isoflurane, and the anesthesia was maintained by 1.5% isoflurane during the operation. The central neck was incised to expose the bilateral common carotid artery carefully so as not to cause damage to the vagal nerve. […]

For a further assay, the system named is IL-1β and IL-18. Put plainly: enzyme immunoassay of inflammatory cytokines in hippocampus tissue. It counts as in vivo, Wistar rats. Conditions: compared with the negative control, FIG. 20. How it is done:
as §1, §2

The next assay has as its system MBP. Put plainly: western blot of MBP in hippocampus. It counts as in vivo, Wistar rats. Conditions: compared with the negative control, FIG. 10. Here is the method: as §1, §2
[2] abbreviates: western blot, compared to the negative control, FIGS. 17A, 17B.

In the case of `O=Cc1ccc(COC(=O)CC(O)(CC(=O)O)C(=O)O)o1` (centres unmarked) [mumefural], in assay [1] (20 mg/kg, 40 mg/kg, and 80 mg/kg oral), the “neurological inflammation protein expression, effect vs normal control” value is given as “effects similar to or superior to those of the normal control”. In assay [1] (setting [2]), the “expression level of IL-1β protein in hippocampus” value is “decreased”, the “expression level of IL-18 protein in hippocampus” value was “decreased”, the “expression level of MyD88 protein in hippocampus” value is recorded as “decreased” and the “expression level of NLRP3 protein in hippocampus” value was “decreased”. For the same compound, in assay [1] (setting [2]), the “expression level of P2X7R protein in hippocampus” value is given as “decreased”, the “expression level of TLR4 protein in hippocampus” value is given as “decreased” and the “expression level of caspase1 protein in hippocampus” value was “decreased”. The “expression level of phospho-STAT3 protein in hippocampus” value in assay [1] (western blot, compared to the negative control, FIGS. 18A, 18B) is recorded as “decreased”. Moreover, the “expression level of NF-κB (p65, p50) proteins in hippocampus” value in assay [1] (western blot, compared to the negative control, FIGS. 19A, 19B) is “decreased”. The “activity of AChE in the basal forebrain” value with AChE is listed as “reduced”. Moreover, in the assay with IL-1β and IL-18, the “level of IL-1β in hippocampus tissue” value is “significantly decreased” and the “level of IL-18 in hippocampus tissue” value was “significantly decreased”. The “density of the MBP in the hippocampus” value in the assay with MBP is on record as “increased”.
